Assay results published in patent US20250115942A1, “SCREENING METHOD FOR ANTI-PSEUDOMONAL AGENTS AND COMPOSITIONS AND METHODS FOR TREATING PSEUDOMONAS INFECTIONS” (Board of Regents for Oklahoma Agricultural and Mechanical …, priority 2021, published 2025).

What was measured:
[1] = system: Pseudomonas aeruginosa PA14; assay: Growth curve analysis (OD600) in LB-Lennox; format: cell-based
Experimental: Strains of interest were grown on LB plates overnight, then inoculated into LB liquid broth until late stationary phase was reached (about 18 hours). Strains were then diluted 1,000-fold into fresh medium and grown to early exponential phase (about 4 hours). The optical density at 600 nm (OD600) was measured, and all cultures were normalized to an OD600 equal to 0.1. […] The plate was incubated in a BioTek Synergy H1 plate reader (BioTek, USA) at 37° C. for 20 h with orbital shaking. OD600 measurements were obtained every 2 minutes. […]

[2] = system: R/F pyocin gene transcription (P07990-lux reporter); assay: Kinetic luciferase assay, P07990-lux reporter for R/F pyocin expression; format: cell-based, Pseudomonas aeruginosa
Experimental: Strains of interest were cultured as described in the growth curve analysis section. Luminescence was measured in black or white clear-bottom 96-well microtiter plates at 3-min intervals at a sensitivity (gain) setting of 135 or 200 together with the OD600 for 20 hours on a BioTek Synergy H1 plate reader (BioTek, USA). Final luciferase activity values were calculated by normalizing luciferase luminescence to culture density.
Strains of interest were grown on LB plates overnight, and single colonies were inoculated into LB liquid broth with appropriate antibiotics and grown overnight with shaking at 37° C. Strains were then diluted 1,000-fold into fresh LB medium and grown to early exponential phase (2-4 hours). […] The plate was incubated in a BioTek Synergy H1 plate reader (BioTek, USA) at 37° C. for 20 h with double-orbital shaking. OD600 and luminescence (gain=135, integration time, 1 sec) measurements were obtained every 10 minutes. At least 3 biological replicates were assayed for each combination of strain and condition. Results were analyzed in MS Excel and plotted using GraphPad Prism.

[3] = system: R/F pyocin expression (P07990-gfp reporter); format: cell-based, Pseudomonas aeruginosa; conditions: wild-type PA14; 50 μM peptide, 135 min
Experimental: Strains of interest were grown in 3 mL of LB liquid broth overnight to obtain a saturated culture. They were then diluted 1,000-fold in fresh LB and grown to early exponential phase (about 4 hours). Cultures were concentrated by centrifuging 1 mL of exponential culture into a microcentrifuge tube at 5000 g for 1 min and resuspending in 100 μL. Cells were immobilized by spotting 0.5 μL of the concentrated mixture onto the pad and covering with cover glass. Imaging was performed on a Nikon Eclipse Ti inverted fluorescence microscope equipped with a Photometrics Prime 95B sCMOS digital camera, a Lumencor SOLA SE II 365 LED Light Engine, and an OKO temperature-controlled enclosure. Snapshot images of the slides were taken at 100× magnification in both phase and GFP channels. Automated timelapse imaging was performed at 37° C. For quantification of GFP-positive cells, images were analyzed using the MicrobeJ plugin for ImageJ, segmenting on phase-contrast and taking the mean GFP values of the corresponding fluorescence images. […]
Strains of interest were grown in 3 mL of LB liquid broth with appropriate antibiotics overnight. […] Imaging was immediately performed using a Nikon Eclipse Ti inverted fluorescence microscope with a Photometrics Prime 95B sCMOS digital camera, a Lumencor SOLA SE II 365 LED Light Engine, and an OKO temperature-controlled enclosure. […]

[4] = wild-type cells, 0.1-50 μM peptide with 0.03 μg/ml ciprofloxacin
[5] = wild-type cells, peptide 25-100 μM
[6] = wild-type cells, peptide concentrations in the 0.1-10 μM range (inhibitor: below 10 μM)
[7] = wild-type cells, 50 μM peptide co-treatment with 0.03 μg/ml ciprofloxacin

## CO[C@@]12[C@H](COC(N)=O)C3=C(C(=O)C(C)=C(N)C3=O)N1C[C@@H]1N[C@@H]12 [MMC, mitomycin C]
[1]; wild-type cells, 0.1 μg/ml MMC
  culture growth: inhibited cell growth to a slightly greater degree than 0.03 μg/ml ciprofloxacin
[1]; xerCY272F, 0.1 μg/ml MMC
  culture growth: initially outgrew both untreated control cultures
[2]; wild-type cells, 0.1 μg/ml MMC
  peak pyocin expression, OD-normalized: peaked at approximately tenfold that induced by ciprofloxacin
[2]; xerCY272F ΔrecA, 0.1 μg/ml MMC
  pyocin expression: abolished ciprofloxacin- and MMC-mediated stimulation of pyocin expression
[2]; xerCY272F, 0.1 μg/ml MMC
  pyocin expression: less expression in xerCY272F cultures than in the wild type
[2]; ΔprtN (wild-type background), 0.1 μg/ml MMC
  pyocin expression: deletion of prtN abolished the ability of MMC to stimulate pyocin expression
[2]; ΔrecA, 0.1 μg/ml MMC
  pyocin expression: deletion of recA fully abolished this very strong MMC-stimulated pyocin induction
[2]; ΔxerC cells, 0.1 μg/ml MMC
  peak pyocin expression relative to untreated cells: approximately twofold stronger, peak of expression than in untreated cells
[2]; ΔxerC ΔprtN, 0.1 μg/ml MMC
  pyocin expression: fully abrogated pyocin expression
[2]; ΔxerC ΔrecA, 0.1 μg/ml MMC
  pyocin expression: independent of RecA

## O=C(O)c1cn(C2CC2)c2cc(N3CCNCC3)c(F)cc2c1=O [ciprofloxacin]
[1]; WT PA14 cells, 0.03 μg/ml ciprofloxacin
  culture growth: slower growth en route to a slightly lower final OD
[1]; xerCY272F, 0.03 μg/ml ciprofloxacin
  culture growth: initially outgrew both untreated control cultures
[1]; Δ69700 cells, 0.03 μg/ml ciprofloxacin
  OD600 reached in growth curve: 0.8
[1]; ΔxerC strain, 0.03 μg/ml ciprofloxacin
  culture growth (ciprofloxacin sensitivity): sensitivity to ciprofloxacin similar to Δ69700

## WKHYNY
[1]; [4]
  culture growth: impacted neither culture growth nor pyocin expression
[1]; [5]
  culture growth: no inhibition of growth
[1]; [6]
  culture growth: correspondingly smaller effects, as did the control peptide
[1]; ΔxerC cells, peptide 25-100 μM
  culture growth: inhibited by WRWYCR but not WKHYNY
[2]; [4]
  pyocin expression: impacted neither culture growth nor pyocin expression
[2]; [5]
  pyocin expression: Neither the WRWYCR inhibitor nor the WKHYNY control elicited pyocin expression beyond the level of untreated cells
[2]; ΔxerC cells, peptide 25-100 μM
  pyocin expression: no differences in pyocin expression were observed

## WRWYCR
[1]; wild-type cells, 10 μM peptide
  culture growth: affected culture growth to a similar degree as 0.03 μg/ml ciprofloxacin
[1]; [7]
  culture growth: initial inhibition of growth
[1]; [5]
  culture growth: markedly impaired P. aeruginosa growth
[1]; [6]
  culture growth: correspondingly smaller effects
[1]; ΔxerC cells, peptide 25-100 μM
  culture growth: inhibited
[3]
  GFP fluorescence of pyocin-GFP reporter cells: did not elicit GFP fluorescence
[2]; wild-type cells, 10 μM peptide co-treatment with 0.03 μg/ml ciprofloxacin
  pyocin expression: earlier and higher peak of pyocin expression relative to ciprofloxacin alone
[2]; [7]
  pyocin expression: later peak of pyocin expression
[2]; wild-type cells, 0.1-10 μM peptide
  pyocin expression: no increase in pyocin expression over untreated cells
[2]; [5]
  pyocin expression: Neither the WRWYCR inhibitor nor the WKHYNY control elicited pyocin expression beyond the level of untreated cells
[2]; ΔxerC cells, peptide 25-100 μM
  pyocin expression: no differences in pyocin expression were observed
